The conditions of data set [1]: cited from earlier work.
The subject of data set [2] is N-CAM 180. As to the kind of experiment: Incubation of human occipital cortex membrane and cytosolic fractions with protease inhibitors, N-CAM immunoblot. Type of data set: biochemical. The text has this: Fresh or frozen human brain cortex is dissected free of pia mater layer and any obvious blood vessels on the surface of the cortex. Pulverize the cortex in a sufficient quantity of liquid Nitrogen to a friable state with mortar and pestle, and accurately weigh out replicate samples of pulverized brain sample while keeping all vessels frozen in dry ice. Place the quantity of protease inhibitor or neuraminidase inhibitor in a PBS buffer of final pH 7.4 and maintain buffer on ice. Add the varying concentrations and combinations of protease inhibitors and/or neuraminidase inhibitors to separate pulverized brain in tubes in a final volume to yield a 20% weight of brain tissue/buffer volume. Allow the tubes to adjust to room temperature, and incubate at standard room temperature conditions for varying time points. The end-point of the assay is accomplished by addition of a 2× denaturing reducing sample buffer such as commercially available and previously published, and heat 3 min at 95 degrees C. Proceed to standard SDS-PAGE and immunoblot conditions to determine the breakdown products of parent molecule N-CAM. Use appropriate control incubations for temperature breakdown and buffer breakdown without protease inhibitors and/or neuraminidase inhibitors. The results can be quantitatively assessed by densitometry of immunoblots as previously published which yields a linear response within a loading range of proteins (˜1-100 μg of protein) depending on gel capacity used and concentrations of antibody and detection substrates which are empirically determined with standard methods. […]
Membrane and cytosolic fractions from human occipital cortex were incubated in the presence of protease inhibitors (10 μM final concentration) for varying lengths of time (typically 2, 4, 8, 16, 32, and 48 hrs at room temperature). An aliquot was analyzed by gel electrophoresis and immunoblotted with N-CAM 3732 antibody. […] The supernatant was labeled “membrane extract.” Protein content of the “cytosolic” and “membrane extract” sample was measured by the micro bicinchoninic acid method (Pierce, Ill.).
In general terms: Immunoblotting shows a protein as a band on a membrane.

The conditions of data set [3]: cited from earlier work. The source holds these as a separate data set.
Data set [4] deals with N-CAM 180. As to the kind of experiment: Neuraminidase treatment of cytosolic and membrane brain extracts, N-CAM immunoblot. The format is biochemical, human. To be noted: 1.25 U/ml diluted enzyme, 18 hrs at 37° C., FIG. 7A. On the procedure:
Membrane “extracts” and “cytosolic” tissue extracts of human occipital cortex were prepared as described^8 with slight modifications^9. Frozen pulverized occipital cortex ˜50 g was suspended in 1000 ml of cold 0.05M Tris buffered saline (TBS, pH 7.4) with protease inhibitors: antipain (4 μg/ml), pepstatin A (2 μg/ml), aprotinin (2 μg/ml), leupeptin (2 μg/ml), and phenyl methyl sulfonyl fluoride (0.1 μg/ml). The solution was homogenized (Tissumizer; Tekmar, Cincinnati Ohio) for 5×10 sec pulses in a 4° C. ice bath and 30 sec cooling interval between pulses. The homogenate was centrifuged for 30 min at 42,000×g at 4° C. The clear supernatant with visible lipid removed was the “cytosolic” fraction. The pellet was resuspended and washed with cold TBS-protease inhibitor cocktail and re-centrifuged at 42,000×g for 30 min at 4° C. […] The supernatant was labeled “membrane extract.” Protein content of the “cytosolic” and “membrane” sample was measured by the micro bicinchoninic acid method (Pierce, Ill.).
Neuraminidase treatment of cytosolic and membrane brain extracts was accomplished by using neuraminidase enzyme from Vibrio cholerae (˜2.49 Units/ml, Fluka) in pH 5.5, 0.15M NaCl, 4 mM CaCl2 that was diluted with 50 mM sodium acetate, 4 mM CaCl2 and 0.2 mM EDTA, (pH 5.0; Buffer A) to 1.25 U/ml. […] Samples were analyzed by immunoblot for N-CAM with antibody 3732. […]

The values below come from US20030211545A1, “Treatment of neuropsychiatric disease with protease and neurominidase inhibitors” (priority 2002, published 2003).

Entries after “also recorded” stand apart in the source; their conditions may differ. Where two headings read alike, the source gives them in different places. A value given as a limit tells only on which side of the number the result lay.

As for `CC(C)CN(C[C@@H](O)[C@H](Cc1ccccc1)NC(=O)O[C@H]1CCOC1)S(=O)(=O)c1ccc(N)cc1` [Amprenavir], the “effect of a high-fat meal on absorption of the drug” value in data set [1] (high-fat meal) is given as “decrease the absorption”. In addition, the “severe or life-threatening rash” value in data set [1] (of recipients) was 1%; in data set [1] (of those who develop a rash), 4%. For the same molecule, in data set [1] (patients treated), the “severe and life-threatening skin reactions, including Stevens-Johnson syndrome” value is recorded as 1%.

For the molecule `CC(=O)N[C@@H](CC(C)C)C(=O)N[C@@H](CC(C)C)C(=O)N[C@H](C=O)CCCNC(=N)N` [leupeptin, Acetyl-leucyl-leucyl-arginal], the “activity in prevention of the breakdown of N-CAM 180 and subsequent release/accumulation of cN-CAM” value in data set [2] (10 μM final concentration, compared with the other protease inhibitors assayed individually) is on record as “most activity; also recorded: most effective”. For the same molecule, the “inhibition of the increase in cN-CAM” value in data set [2] (10 μM, room temperature, over the course of 48 hr, FIG. 8B and C) is listed as “completely inhibited”. Moreover, in data set [2] (assayed in human brain), the “potency compared to the protease inhibitor cocktail” value is “most potent”.

On to Aprotinin, for which, in data set [3] (clinical trials), the tolerability in humans entry is reported as “generally well tolerated”. The hypersensitivity reactions in data set [3] (patients receiving aprotinin for the first time) is less than 0.1 to 0.6%.

Regarding “neuraminidase: neuraminidase enzyme from Vibrio cholerae (Fluka)”, the “effect on N-CAM 180 in membrane extracts” value in data set [4] is on record as “removal of higher MW N-CAM 180”.
